In the assay the target is T1, E. coli DdlB enzyme (D-alanine:D-alanine ligase) (Escherichia coli, UniProt P07862).
T1 construct: made in house; host or cells: E. coli
The assay can be described thus: biochemical. The conditions noted are these: read-out: DdlB RA; for remaining activity at 2000 µM: tested concentration 2.0 mM; for remaining activity at 1800 µM: tested concentration 1.8 mM; for remaining activity at 1700 µM: tested concentration 1.7 mM; for remaining activity at 3200 µM: tested concentration 3.2 mM; for remaining activity at 2400 µM: tested concentration 2.4 mM; for remaining activity at 1900 µM: tested concentration 1.9 mM; for remaining activity at 2200 µM: tested concentration 2.2 mM; for remaining activity at 2100 µM: tested concentration 2.1 mM; for remaining activity at 2300 µM: tested concentration 2.3 mM; for remaining activity at 2600 µM: tested concentration 2.6 mM; for remaining activity at 3100 µM: tested concentration 3.1 mM.

[1] abbreviates: residual activity of DdlB, fragment library screening, tested concentration 2.5 mM.

The structures appear in SMILES notation. Where two headings read alike, the source gives them in different places.

Consider `Cc1cccc(-c2ccnc3c(C(=O)O)cnn23)c1` [Compound Y502-0116], for which the remaining activity at 2000 µM (fragment library screening) was determined as 6%.

Turning to `Cc1c(S(=O)(=O)NC2CCCCCC2)cnn1C` [Compound Y502-6613], the remaining activity at 1800 µM (residual activity) was 94%.

With `CCn1nccc1[C@H](C)NC(=O)[C@H]1CCCC[C@H]1C(=O)O` [Compound Y503-1571], the remaining activity at 1700 µM (fragment library screening) came out at 93%.

With `Cc1ccn(C(C)C(=O)O)n1` (stereo not drawn) [Compound Y503-2318], the remaining activity at 3200 µM is 95%.

With `O=C(O)c1ccn(COc2ccc(Cl)cc2Cl)n1` [Compound Y503-2333], the remaining activity at 1700 µM (residual activity) came to 96%.

Consider `Cc1nn(C)cc1-c1cc(C(=O)O)n[nH]1` [Compound Y503-2347], for which the remaining activity at 2400 µM stood at 95%.

On to `Cc1cc(C(=O)O)nn1C(F)F` [Compound Y503-2420], for which the remaining activity at 2800 µM (tested concentration 2.8 mM) was determined as 85%.

With `Oc1cc(-c2ccco2)n[nH]1` [Compound Y503-3143], the remaining activity at 3300 µM (tested concentration 3.3 mM) amounted to 98%.

For `Cn1ncc(C(=O)O)c1C(=O)NCC1CCCO1` (stereo not drawn) [Compound Y504-5972], the remaining activity at 2000 µM is 96%.

For `Cc1c(-c2cc(C(=O)O)n3nccc3n2)cnn1C` [Compound Y504-7677], the remaining activity at 1900 µM was determined as 86%.

For `O=C(NCc1cc[nH]n1)[C@H]1CC=CC[C@H]1C(=O)O` [Compound Y504-7917], under “fragment library screening”, the remaining activity at 2000 µM is 88%.

As for `Cc1onc(C(=O)O)c1COc1ccc([N+](=O)[O-])cc1` [Compound Y504-8568], the remaining activity at 1800 µM (fragment library screening) was 97%.

As to `Cc1cc(C(=O)O)n2nc(C)c(Cl)c2n1` [Compound Y504-8761], under “residual activity”, the remaining activity at 2200 µM was found to be 98%.

Take `OCCn1cc(Br)cn1` [Compound Y504-8814]: the remaining activity at 2900 µM (tested concentration 2.9 mM) worked out at 97%.

Take `CCn1ncc(Cn2cc(Cl)c(N)n2)c1C` [Compound Y504-8851]: the remaining activity at 2100 µM is 96%.

For `COCn1nc(C)c(N)c1C` [Compound Y504-8876], the remaining activity at 3900 µM (residual activity of DdlB, fragment library screening, tested concentration 3.9 mM) amounted to 92%.

`COC(=O)Cn1nc(C(F)F)c2c1CCCC2` [Compound Y504-8961]: the remaining activity at 2000 µM stood at 94%.

With `CC1(C)CC(=O)c2cnc(NC3CC3)nc2C1` [Compound Y600-1530], the remaining activity at 2400 µM stood at 89%.

Take `CCOC1CN=C2C(C#N)=CC=CN21` (stereo not drawn) [Compound Y600-6204]: the remaining activity at 2200 µM worked out at 92%.

`CCc1nc2ccc(C(N)=O)cc2nc1CC` [Compound Z601-0869]: the remaining activity at 2400 µM came out at 88%.

Take `CCn1c(C(=O)NC(C)C)cc2occc21` [Compound Z601-0941]: the remaining activity at 2300 µM is 96%.

Consider `CCC1CCCCN1C(=O)C1CCCN1C(C)=O` (stereo not drawn) [Compound Z601-4855], for which the remaining activity at 2400 µM is 74%.

Take `Cc1ccc(Cn2ccnc2C(N)=O)cc1` [Compound Z601-5404]: the remaining activity at 2600 µM stood at 99%.

Turning to `CNC(=O)c1cc(C)nc2ccc(C(C)C)cc12` [Compound Z601-7136], the remaining activity at 2100 µM is 97%.

As for `Cn1c(=O)cnc2ccc(N3CCCCCC3)nc21` [Compound Z601-8402], the remaining activity at 2300 µM worked out at 83%.

Turning to `CCS(=O)(=O)N1CCCN(C(=O)C2CC2)CC1` [Compound Z603-0719], the remaining activity at 2300 µM was 98%.

As for `CC(C)n1nnc2cc(C(N)=O)ccc21` [Compound Z606-2126], the remaining activity at 2400 µM worked out at 92%.

For `Cc1cc(C2CCCN2C(=O)c2ccc(F)c(F)c2)on1` (stereo not drawn) [Compound Z632-2808], the remaining activity at 1700 µM (residual activity) amounted to 98%.

With `CCCc1nnc(-c2ccncc2)o1` [Compound Z632-7367], the remaining activity at 2600 µM amounted to 94%.

With `CC(C)c1nnc(-c2cnccn2)o1` [Compound Z632-7479], the remaining activity at 2600 µM stood at 105%.

For the compound `O=C1Nc2ncccc2OC1c1ccccc1` (stereo not drawn) [FF01-0341], the remaining activity at 2200 µM was found to be 106%.

For `CCn1c(C(=O)N2CCC(C(=O)O)CC2)cc2occc21` [FF01-0413], under “residual activity”, the remaining activity at 1900 µM came to 110%.

As for `Cc1cc2n(n1)CCC(=O)N2CCCC(=O)O` [FF01-0590], the remaining activity at 2300 µM is 92%.

As to `CN1CCN(C)C1c1ccccc1O` [FF01-2467], the remaining activity at 3100 µM is 93%.

For `O=C(O)C1CCN(c2cnc(N3CCCC3)nc2)CC1` [FF01-3116], for the setting “residual activity”, the remaining activity at 2200 µM came to 69%.

As to `CN1CCN(C(=O)CCC(=O)O)c2cccnc21` [FF01-3162], the remaining activity at 2400 µM was found to be 65%.

Consider `CC1Cc2ccc(CN)cc2N1C(=O)c1ccccc1` (stereo not drawn) [FF01-3167], for which the remaining activity at 2300 µM (residual activity) is 51%.

With `c1cnc2[nH]cc(CCN3CCNCC3)c2c1` [FF01-3277], where the note is “residual activity”, the remaining activity at 2200 µM came out at 62%.

Regarding `NCCCN1CCCC1=O` [FF01-3614], under “residual activity of DdlB, fragment library screening, tested concentration 4.2 mM”, the remaining activity at 4200 µM came out at 90%.

`Cc1nn(C(C)C(=O)O)cc1Cl` (stereo not drawn) [FF01-4477]: the remaining activity at 2700 µM (residual activity of DdlB, fragment library screening, tested concentration 2.7 mM) was 89%.

As to `Cc1nc(N)nc(C)c1CCC(=O)O` [FF01-4599], the remaining activity at 3100 µM came out at 91%.

For the compound `Cc1nn(Cc2c(C(=O)O)noc2C)c(C)c1C` [FF01-5078], the remaining activity at 2000 µM came to 81%.

With `O=C1CSCC(C(=O)O)N1` (stereo not drawn) [FF01-5725], the remaining activity at 3100 µM was found to be 107%.

For the compound `N#CCS(=O)(=O)C1CCCCC1` [FF20-0194], the remaining activity at 3200 µM (residual activity of DdlB, fragment library screening) came to 101%.

Take `COc1ccccc1Cc1noc([C@H]2CCCN2)n1` [FF20-0278]: the remaining activity at 1900 µM was 87%.

As for `Cn1cnc2c(c1=O)CCC(N)CC2` (stereo not drawn) [FF20-0287], the remaining activity at 3100 µM worked out at 91%.

Consider `Cc1nc(C(=O)O)c(C)n1C1CCN(C)CC1` [FF20-0714], for which the remaining activity at 2100 µM (residual activity) turned out to be 100%.

As for `O=c1cc(N2CCOCC2)cn[nH]1` [FF20-1495], the remaining activity at 3000 µM (residual activity of DdlB, fragment library screening, tested concentration 3.0 mM) was 88%.

In the case of `CC(C)N1CCC(CCC(=O)O)CC1` [FF20-1518], the remaining activity at 2500 µM (tested concentration 2.5 mM) was 108%.

With `Cc1cc(C)n(CCN2CCOCC2)n1` [FF20-3241], the remaining activity at 1900 µM turned out to be 86%.

`CC(C)Oc1c(OC(C)C)c(=O)c1=O` [FF20-3460]: the remaining activity at 2500 µM (tested concentration 2.5 mM) stood at 72%.

In the case of `O=C(O)C1CCN(c2ccc(C(F)(F)F)cn2)CC1` [FF30-0262], the remaining activity at 1800 µM (fragment library screening) amounted to 92%.

`CC(=O)Oc1cccc(C(=O)O)c1` [FLD001]: the remaining activity at 2500 µM under setting [1] turned out to be 100%.

As for `O=c1[nH][nH]c2ccccc12` [FLD002], the remaining activity at 2500 µM under setting [1] is 89%.

With `O=C(O)Cc1ccsc1` [FLD003], the remaining activity at 2500 µM under setting [1] came to 100%.

On to `N#Cc1nc[nH]c1C#N` [FLD004], for which the remaining activity at 2500 µM stood at 100%.

With `O=C(O)c1n[nH]c2ccccc12` [FLD005], under setting [1], the remaining activity at 2500 µM was 97%.

Regarding `COC(=O)c1ccccc1C(=O)O` [FLD006], under setting [1], the remaining activity at 2500 µM was determined as 89%.

`NC(=O)c1cnccn1` [FLD007]: the remaining activity at 2500 µM under setting [1] was 100%.

For `COc1ccc2c(c1)C(=O)CCC2` [FLD008], the remaining activity at 2500 µM under setting [1] came out at 100%.

`Oc1cccc2[nH]ccc12` [FLD010]: the remaining activity at 2500 µM under setting [1] was determined as 100%.

For the compound `O=C(O)c1c[nH]cn1` [FLD011], the remaining activity at 2500 µM under setting [1] turned out to be 100%.

Turning to `COc1cc(C#N)ccc1C` [FLD012], the remaining activity at 2500 µM under setting [1] was found to be 51%.

With `COc1ccc2ccc(O)cc2c1` [FLD013], the remaining activity at 2500 µM under setting [1] is 73%.

On to `Cc1cc(N)no1` [FLD014], for which, under setting [1], the remaining activity at 2500 µM was 104%.

Turning to `CC(=O)c1ccc([N+](=O)[O-])cc1` [FLD015], the remaining activity at 2500 µM under setting [1] was determined as 100%.

As for `NC(=O)Nc1ccccc1` [FLD016], the remaining activity at 2500 µM under setting [1] was 99%.

In the case of `NC(=O)NC(=O)Cc1ccccc1` [FLD017], the remaining activity at 2500 µM under setting [1] amounted to 100%.

Turning to `Cc1nc(-c2ccc(C(=O)O)cc2)cs1` [FLD018], the remaining activity at 2500 µM under setting [1] is 99%.

For the compound `CC(Oc1ccccc1)C(=O)O` (stereo not drawn) [FLD019], under setting [1], the remaining activity at 2500 µM stood at 99%.

As to `O=C(O)c1ccc(-n2ccnc2)cc1` [FLD020], the remaining activity at 2500 µM under setting [1] is 96%.

For the compound `Cc1c[nH]c(=O)[nH]c1=O` [FLD021], the remaining activity at 2500 µM under setting [1] amounted to 91%.

Turning to `O=C1CNC(=S)N1` [FLD022], the remaining activity at 2500 µM under setting [1] came out at 98%.

With `Cc1ccc(N)c(O)c1` [FLD023], the remaining activity at 2500 µM stood at 100%.

Take `Cc1nc(-c2ccncc2)sc1C(=O)O` [FLD024]: the remaining activity at 2500 µM under setting [1] amounted to 96%.

As to `Cc1ccc(C(=N)N)cc1` [FLD025], the remaining activity at 2500 µM under setting [1] stood at 100%.

On to `O=C(O)c1ccc(-c2cnco2)cc1` [FLD026], for which the remaining activity at 2500 µM under setting [1] came to 87%.

Regarding `COc1cc(O)cc(OC)c1OC` [FLD027], under setting [1], the remaining activity at 2500 µM came to 98%.

Regarding `O=C1CCC(C(=O)O)N1` (stereo not drawn) [FLD028], the remaining activity at 2500 µM under setting [1] was 100%.

Consider `O=C1COc2cc(O)ccc21` [FLD029], for which the remaining activity at 2500 µM under setting [1] was determined as 100%.

On to `COc1ccc(-c2ccc(C(=O)O)o2)cc1` [FLD030], for which, under setting [1], the remaining activity at 2500 µM was found to be 100%.

For `NC(=O)c1cccnc1` [FLD031], the remaining activity at 2500 µM under setting [1] is 100%.

For the compound `Nc1cc(Cl)ccc1O` [FLD032], the remaining activity at 2500 µM under setting [1] was found to be 100%.

In the case of `Cc1ccccc1C(=O)NCC(=O)O` [FLD033], the remaining activity at 2500 µM under setting [1] came out at 100%.

(Values after publication PMC9718554, “Discovery of a fragment hit compound targeting D-Ala:D-Ala ligase of bacterial peptidoglycan biosynthesis” (Journal of Enzyme Inhibition and Medicinal Chemistry, 2022).)
